# pIC50: −log10 of the molar value.
# How the values were obtained:
# [1] = tested on: RAW264.7; test: Anti-inflammatory activity in mouse RAW264.7 cells assessed as inhibition of LPS-induced TNFalpha production measured after 24 hrs by EIA method relative to control; assay type: functional; design: scale not given: the % may be the effect or the level left
# [2] = tested on: Rattus norvegicus; test: Anti-inflammatory activity against formalin-induced foot paw edema in PO dosed rat at 10 mg/kg assessed as inhibition of edema measured after 1 hr relative to control; assay type: functional; design: scale not given: the % may be the effect or the level left
# [3] = species on record: Rattus norvegicus; test: Antinociceptive activity in Wistar rat assessed as hot-plate change in latency by hot plate test method relative to control; assay type: organism-based; conditions: in vivo
# [4] = tested on: RAW264.7; test: Anti-inflammatory activity in mouse RAW264.7 cells assessed as inhibition of LPS-induced NO production; assay type: functional, cell-based
# [5] = tested on: RAW264.7; test: Anti-inflammatory activity in mouse RAW264.7 cells assessed as inhibition of LPS-induced TNFalpha production measured after 24 hrs by EIA method; assay type: functional, cell-based; conditions: RAW264.7, 24 h
# [6] = tested on: RAW264.7; test: Anti-inflammatory activity in mouse RAW264.7 cells assessed as inhibition of LPS-induced IL-6 production measured after 24 hrs by EIA method; assay type: functional, cell-based; conditions: RAW264.7, 24 h
# [7] = Anti-inflammatory activity assessed as protein denaturation using bovine serum albumin relative to control; assay type: functional
# [8] = Antioxidant activity assessed as DPPH radical scavenging activity incubated for 20 mins relative to control; assay type: functional
# [9] = Inhibition of MAPK p38 (unknown origin); design: species or system Homo sapiens
# [10] = tested on: Rattus norvegicus; test: Anti-inflammatory activity in Carrageenan-induced rat paw edema in Wistar rat assessed as reduction in inhibition of edema measured after 4 hrs relative to control; assay type: functional; design: scale not given: the % may be the effect or the level left
# [11] = target: Tumor necrosis factor (Homo sapiens) (UniProt P01375); test: Inhibition of TNF-alpha (unknown origin) relative to control; conditions: concentration not given here
# Chain of Tumor necrosis factor (Homo sapiens) (P01375 whole entry, looked up): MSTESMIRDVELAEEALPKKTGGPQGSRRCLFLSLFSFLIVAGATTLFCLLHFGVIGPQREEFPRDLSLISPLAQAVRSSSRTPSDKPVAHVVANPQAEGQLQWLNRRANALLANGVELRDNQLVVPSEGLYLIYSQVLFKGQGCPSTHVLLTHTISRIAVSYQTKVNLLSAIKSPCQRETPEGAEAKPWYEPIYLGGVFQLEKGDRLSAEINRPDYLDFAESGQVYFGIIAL
# [12] = Anti-inflammatory activity assessed as protein denaturation using bovine serum albumin at 100 uM relative to control; assay type: functional
# [13] = Anti-inflammatory activity assessed as protein denaturation using bovine serum albumin at 250 uM relative to control; assay type: functional
# [14] = Anti-inflammatory activity assessed as protein denaturation using bovine serum albumin at 500 uM relative to control; assay type: functional
# [15] = Anti-inflammatory activity assessed as protein denaturation using egg albumin at 100 uM relative to control; assay type: functional
# [16] = Anti-inflammatory activity assessed as protein denaturation using egg albumin at 250 uM relative to control; assay type: functional
# [17] = Anti-inflammatory activity assessed as protein denaturation using egg albumin at 500 uM relative to control; assay type: functional
# [18] = tested on: Rattus norvegicus; test: Anti-inflammatory activity in Carrageenan-induced paw edema in Wistar albino rat assessed as inhibition of paw edema measured after 1 hr relative to control; assay type: functional
# [19] = tested on: Rattus norvegicus; test: Anti-inflammatory activity in Carrageenan-induced paw edema in Wistar albino rat assessed as inhibition of paw edema measured after 2 hr relative to control; assay type: functional
# [20] = target: T1, Prostaglandin G/H synthase 2 (Homo sapiens, UniProt P35354); test: Inhibition of COX-2 (unknown origin) at 0.1 uM
# T1 sequence (P35354 whole entry): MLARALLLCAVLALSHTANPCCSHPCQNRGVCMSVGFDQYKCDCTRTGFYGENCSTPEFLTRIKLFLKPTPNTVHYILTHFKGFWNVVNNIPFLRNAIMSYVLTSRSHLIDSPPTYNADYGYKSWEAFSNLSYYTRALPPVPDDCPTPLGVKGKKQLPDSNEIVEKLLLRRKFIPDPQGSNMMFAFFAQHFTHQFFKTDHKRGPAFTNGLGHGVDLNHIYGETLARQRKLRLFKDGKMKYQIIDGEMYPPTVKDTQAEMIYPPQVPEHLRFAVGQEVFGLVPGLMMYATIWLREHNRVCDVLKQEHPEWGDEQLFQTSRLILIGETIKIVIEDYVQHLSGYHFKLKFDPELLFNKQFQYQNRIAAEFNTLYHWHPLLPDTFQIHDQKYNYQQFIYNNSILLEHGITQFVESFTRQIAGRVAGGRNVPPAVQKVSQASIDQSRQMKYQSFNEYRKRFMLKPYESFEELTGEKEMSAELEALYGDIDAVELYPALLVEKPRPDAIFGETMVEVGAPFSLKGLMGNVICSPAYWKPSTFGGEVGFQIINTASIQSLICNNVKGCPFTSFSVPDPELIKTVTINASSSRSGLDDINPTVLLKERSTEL
# [21] = tested on: Rattus norvegicus; test: Anti-inflammatory activity in Carrageenan-induced paw edema in Wistar albino rat assessed as inhibition of paw edema measured after 6 hr relative to control; assay type: functional
# [22] = tested on: Rattus norvegicus; test: Anti-inflammatory activity against carrageenan-induced Albino Wistar rat paw edema model assessed as inhibition of rat paw edema at 50 mg/kg, po after 3 hrs relative to control; assay type: functional; design: scale not given: the % may be the effect or the level left
# [23] = tested on: Rattus norvegicus; test: Anti-inflammatory activity in Carrageenan-induced-Wistar albino rat model assessed as reduction in volume of paw edema measured after 3 hrs; assay type: functional
# [24] = tested on: Rattus norvegicus; test: Anti-ulcerative activity in Carrageenan-induced Sprague-Dawley rat ulcer model assessed as inhibition of ulcer index at 10 mg/kg,po; assay type: functional
# [25] = tested on: RAW264.7; test: Anti-inflammatory activity in mouse RAW264.7 cells assessed as inhibition of LPS-induced reduction in cytokine levels relative to control; assay type: functional; design: scale not given: the % may be the effect or the level left
# [26] = target: Prostaglandin G/H synthase 1 (Homo sapiens, UniProt P23219); test: Inhibition of COX-1 (unknown origin) at 40 uM relative to control
# Chain of Prostaglandin G/H synthase 1 (P23219 whole entry): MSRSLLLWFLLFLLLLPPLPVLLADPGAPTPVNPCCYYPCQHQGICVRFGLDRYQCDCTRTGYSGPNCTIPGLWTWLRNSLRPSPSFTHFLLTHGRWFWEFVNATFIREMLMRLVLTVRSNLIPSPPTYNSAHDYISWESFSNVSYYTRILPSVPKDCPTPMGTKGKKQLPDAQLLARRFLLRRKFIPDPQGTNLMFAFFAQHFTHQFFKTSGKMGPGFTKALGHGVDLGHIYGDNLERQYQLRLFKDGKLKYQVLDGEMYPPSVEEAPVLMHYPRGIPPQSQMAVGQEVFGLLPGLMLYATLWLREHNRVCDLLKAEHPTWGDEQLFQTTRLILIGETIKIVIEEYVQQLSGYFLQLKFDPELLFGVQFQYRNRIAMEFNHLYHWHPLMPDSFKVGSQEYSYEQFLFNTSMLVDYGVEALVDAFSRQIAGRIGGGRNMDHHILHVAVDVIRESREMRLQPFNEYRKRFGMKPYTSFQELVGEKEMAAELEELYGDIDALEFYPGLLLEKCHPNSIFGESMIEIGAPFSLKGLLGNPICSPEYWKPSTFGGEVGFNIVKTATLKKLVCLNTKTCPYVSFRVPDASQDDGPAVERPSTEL
# [27] = target: T1, Prostaglandin G/H synthase 2; test: Inhibition of COX-2 (unknown origin) assessed as inhibition at 10 uM
# [28] = target: T1, Prostaglandin G/H synthase 2; test: Inhibition of COX-2 (unknown origin) at 10 uM
# [29] = tested on: Mus musculus; test: Anti-inflammatory activity in Carrageenan-induced paw edema mouse model assessed as inhibition of granuloma measured after 24 hrs relative to control; assay type: functional
# [30] = tested on: Rattus norvegicus; test: Anti-inflammatory activity against formalin-induced foot paw edema in Wistar rat at 5 mg/kg, po assessed as inhibition of edema measured after 4 hr relative to control; assay type: functional
smiles,measurement,setting,value
COc1cc(OC)c2c(c1)OCC/C(=C\Cc1ccccn1)C2=O,Activity,[1],92.5%
CCOC(=O)c1c(SC)nn(C(=O)CSc2nnc(CCCOc3ccc(C)cc3C(=O)c3ccc(F)cc3)o2)c1N,Activity,[2],52.17%
same,Activity,[3],92.3%
CCCCc1nn(C)c2c(NCCCN3CCOCC3)nc(/C=C/c3cc(OC)c(OC)c(OC)c3)nc12,pIC50,[4],5.25
same,pIC50,[5],5.36
same,pIC50,[6],5.58
O=C(Nc1ccc(Cl)cc1)c1ccc(Nc2ncnc3c2cnn3-c2ccccc2)cc1,Activity,[7],82.3%
same,Activity,[8],74.9%
same,pIC50,[9],5.79
same,Activity,[10],83.73%
same,inhibition,[11],62.3%
COc1ccc(NC(=O)c2cc(-c3ccncc3)n[nH]2)cc1,Activity,[12],65%
same,Activity,[13],80%
same,Activity,[14],90%
same,Activity,[15],60%
same,Activity,[16],85%
same,Activity,[17],95%
CC(=O)N(CN1C(=O)/C(=C\c2nnc(-c3ccc(-c4ccncc4)cc3)s2)c2ccccc21)C1C(c2ccc(O)cc2)=NNC1S (stereo not given),inhibition (INH),[18],20%
same,inhibition (INH),[19],10.53%
same,pIC50,[20],4.15
same,inhibition (INH),[21],57.14%
NS(=O)(=O)c1ccc(N/N=C/c2cn(-c3ccc(S(N)(=O)=O)cc3)nc2-c2ccc(Cl)cc2)cc1,Activity,[22],97.69%
same,ED50,[23],8 mg/kg
same,UI,[24],2.72
O=c1[nH]c(-c2ccccn2)nc2sc3c(c12)CCCC3,Activity,[25],70%
COc1ccc(/C=C2/SC(=S)C(Nc3nc4c(cnn4-c4ccccc4)c(=O)n3-c3ccccc3)C2=O)cc1OC (stereo not given),pIC50,[26],5.45
same,pIC50,[27],6.43
same,pIC50,[28],6.11
same,inhibition (INH),[29],38.2%
same,inhibition in vivo at 5 mg/kg,[30],57.4%

# — ChEMBL document CHEMBL5233249, “Recent advancements in the development of heterocyclic anti-inflammatory agents” (Eur J Med Chem, 2020)
